Test results reported in US20260207641A1, “COMBINATION THERAPY FOR CANCER USING ROS-ACTIVATED PRODRUGS AND ROS-AMPLIFYING THERAPEUTICS” (UWM Research Foundation, Inc., priority 2023, published 2026).
Several values for one entry are separate records, joined by “and”; a condition that tells them apart may be missing. Equal values may be shown once. Read-outs that look alike come from different tables or passages of the source.

How the values were obtained:
MDA-MB-468 cells [1] = conditions: cited from earlier work
MDA-MB-468 cells [2] = experiment: Cytotoxicity dose response (CellTiter-Glo, 48 h); assay type: cell-based, human
MCF 10A (normal cells) = experiment: Cytotoxicity dose response (CellTiter-Glo, 48 h); assay type: cell-based, human
MCF7 cells [3] = tested on: MCF7 cells
MDA-MB-468 cells [4] = assay type: cell-based, human
[5] = tested on: extracellular H2O2 in U-87 MG cells; experiment: Extracellular H2O2 measurement (Amplex Red assay); assay type: cell-based; conditions: U-87 MG at maximum safe ascorbic acid dose, 48 h
MCF 10A cells = assay type: cell-based, human
MCF7 cells [6] = experiment: cells; assay type: cell-based, human
U-87 MG cells [7] = tested on: U-87 MG cells
[8] = tested on: extracellular H2O2 in MCF 10A cells; experiment: Extracellular H2O2 measurement (Amplex Red assay); assay type: cell-based, human; conditions: MCF 10A at maximum safe ascorbic acid dose, 48 h
[9] = tested on: MDA-MB-468 breast cancer xenograft; parameters: species or system immune-deficient female nude mice; conditions: mouse, in vivo
[10] = tested on: extracellular H2O2 in MCF7 cells; experiment: Extracellular H2O2 measurement (Amplex Red assay); assay type: cell-based, human; conditions: 48 h
U-87 MG cells [11] = experiment: cells; assay type: cell-based
[12] = tested on: extracellular H2O2 in MDA-MB-468 cells; experiment: Extracellular H2O2 measurement (Amplex Red assay); assay type: cell-based, human; conditions: MDA-MB-468 at maximum safe ascorbic acid dose, 48 h
HMEC cells = experiment: cells; assay type: cell-based; conditions: Homo sapiens, 48 h
[13] = tested on: intracellular H2O2 in MDA-MB-468 cells; experiment: Intracellular H2O2 measurement (AbGreen indicator); assay type: cell-based, human; conditions: MDA-MB-468 under ascorbic acid treatment, 48 h
MDA-MB-436 cells = experiment: cells; assay type: cell-based, human
MDA-MB-231 cells = experiment: cells; assay type: cell-based, human
MDA-MB-468 cells [14] = assay type: cell-based, human; remark: listed apart in the source

O=C(O)CCCc1ccc(N(CCCl)CCCl)cc1 [Chlorambucil]
IC50 (MDA-MB-468 cells [1]): 34.4 µM
Fold Change (MDA-MB-468 cells [2]): 1 fold
IC50 (MDA-MB-468 cells [2]; Homo sapiens, MDA-MB-468, 48 h): 30.2 ± 2.3 µM
IC50 (MDA-MB-468 cells [2]; Homo sapiens, MDA-MB-468, read-out: IC50 in combination with Vitamin C Safe Dose): 28.7 ± 2.4 µM

O=C(OC1Cc2c(O)cc(O)cc2OC1c1cc(O)c(O)c(O)c1)c1cc(O)c(O)c(O)c1 (stereo not drawn) [EGCG]
MSD (Maximum Safe Dose) (MCF 10A (normal cells)): 6.25 µM
IC50 (MCF 10A (normal cells); Homo sapiens, MCF-10A, 48 h): 28.5 ± 2.55 µM
MSD (Maximum Safe Dose) (MDA-MB-468 cells [2]): 12.50 µM
SI (Selectivity Index) (MDA-MB-468 cells [2]): 0.5
SI of Prodrug Combined with Maximum Safety Dose of Pro-oxidant (MDA-MB-468 cells [2]): 2
IC50 (MDA-MB-468 cells [2]; Homo sapiens, MDA-MB-468, 48 h): 65 ± 3.45 µM

COc1cc(/C=C/C(=O)N2CCC=CC2=O)cc(OC)c1OC [Piperlogumine]
MSD (Maximum Safe Dose) (MCF 10A (normal cells)): 1.56 µM
IC50 (MCF 10A (normal cells); Homo sapiens, MCF-10A, 48 h): 4.91 ± 0.51 µM
MSD (Maximum Safe Dose) (MDA-MB-468 cells [2]): 0.78 µM
SI (Selectivity Index) (MDA-MB-468 cells [2]): 2
SI of Prodrug Combined with Maximum Safety Dose of Pro-oxidant (MDA-MB-468 cells [2]): 6
IC50 (MDA-MB-468 cells [2]; Homo sapiens, MDA-MB-468, 48 h): 2.24 ± 0.05 µM

CCCOC(=O)c1cc(O)c(O)c(O)c1 [Propyl Gallate]
MSD (Maximum Safe Dose) (MCF 10A (normal cells)): 12.50 µM
IC50 (MCF 10A (normal cells); Homo sapiens, MCF-10A, 48 h): 51.4 ± 5.45 µM
MSD (Maximum Safe Dose) (MDA-MB-468 cells [2]): 25.00 µM
SI (Selectivity Index) (MDA-MB-468 cells [2]): 1
SI of Prodrug Combined with Maximum Safety Dose of Pro-oxidant (MDA-MB-468 cells [2]): 3
IC50 (MDA-MB-468 cells [2]; Homo sapiens, MDA-MB-468, 48 h): 49.2 ± 1.83 µM

O=c1c(O)c(-c2ccc(O)c(O)c2)oc2cc(O)cc(O)c12 [Quercetin]
MSD (Maximum Safe Dose) (MCF 10A (normal cells)): 6.25 µM
IC50 (MCF 10A (normal cells); Homo sapiens, MCF-10A, 48 h): 19.6 ± 1.24 µM
MSD (Maximum Safe Dose) (MDA-MB-468 cells [2]): 3.13 µM
IC50 (MDA-MB-468 cells [2]; Homo sapiens, MDA-MB-468, 48 h): 15.8 ± 2.15 µM

O=C1O[C@H]([C@@H](O)CO)C(O)=C1O [Vitamin C]
dose found to be safe (MCF7 cells [3]): 0.25 mM
dose found to be safe (MDA-MB-468 cells [4]): 1 mM
extracellular H2O2 level [5]: ~7 µM
dose found to be safe (MCF 10A cells): 1 mM
IC50 (MCF7 cells [6]): 970 ± 70 µM
Maximum Safe Dose (MSD) (MCF7 cells [6]): 0.25 mM
IC50 (MCF7 cells [6]; Homo sapiens, MCF7, 48 h): 1000 µM
dose found to be safe (U-87 MG cells [7]): 0.25 mM
extracellular H2O2 level [8]: ~5 µM
effect on tumor size [9]: observable inhibitory effects on the tumor size
H2O2 generated (most substantial change) ([10]; MCF7, increasing mM ascorbic acid): over 20 μM
extracellular H2O2 level ([10]; MCF7 at maximum safe ascorbic acid dose): ~7 µM
Maximum Safe Dose (MSD) (U-87 MG cells [11]): 0.3 mM and 0.30 mM
IC50 (U-87 MG cells [11]; Homo sapiens, U-87 MG, 48 h): 1000 µM
extracellular H2O2 level [12]: around 10 μM
IC50 (MCF 10A (normal cells)): 4200 ± 400 µM
Maximum Safe Dose (MSD) (MCF 10A (normal cells)): 1.25 mM
IC50 (HMEC cells): 2670 ± 400 µM
intracellular H2O2 level compared to untreated samples [13]: significant threefold increase
Maximum Safe Dose (MSD) (MDA-MB-436 cells): 1 mM
IC50 (MDA-MB-436 cells; Homo sapiens, MDA-MB-436, 48 h): 1390 ± 100 µM
Maximum Safe Dose (MSD) (MDA-MB-231 cells): 1 mM
IC50 (MDA-MB-231 cells; Homo sapiens, MDA-MB-231, 48 h): 2230 ± 300 µM
observable DNA damage (MDA-MB-468 cells [14]): did not show any observable DNA damage
Maximum Safe Dose (MSD) (MDA-MB-468 cells [2]): 1 mM and 1.00 mM

Cc1c(C)c2c(c(C)c1O)CCC(C)(CCCC(C)CCCC(C)CCCC(C)C)O2 (stereo not drawn) [Vitamin E]
MSD (Maximum Safe Dose) (MCF 10A (normal cells)): 25.00 µM
IC50 (MCF 10A (normal cells); Homo sapiens, MCF-10A, 48 h): 376 ± 21.4 µM
MSD (Maximum Safe Dose) (MDA-MB-468 cells [2]): 1.56 µM
SI (Selectivity Index) (MDA-MB-468 cells [2]): 5
SI of Prodrug Combined with Maximum Safety Dose of Pro-oxidant (MDA-MB-468 cells [2]): 11
IC50 (MDA-MB-468 cells [2]; Homo sapiens, MDA-MB-468, 48 h): 76.5 ± 6.62 µM

CC1(C)CCC2=C(O1)c1ccccc1C(=O)C2=O [β-Lapachone]
MSD (Maximum Safe Dose) (MCF 10A (normal cells)): 1.56 µM
IC50 (MCF 10A (normal cells); Homo sapiens, MCF-10A, 48 h): 3.42 ± 0.22 µM
MSD (Maximum Safe Dose) (MDA-MB-468 cells [2]): 0.78 µM
SI (Selectivity Index) (MDA-MB-468 cells [2]): 3
SI of Prodrug Combined with Maximum Safety Dose of Pro-oxidant (MDA-MB-468 cells [2]): 2
IC50 (MDA-MB-468 cells [2]; Homo sapiens, MDA-MB-468, 48 h): 1.06 ± 0.17 µM

Arsenic Trioxide
MSD (Maximum Safe Dose) (MCF 10A (normal cells)): 1.56 µM
IC50 (MCF 10A (normal cells); read-out: IC50): 8.52 ± 0.4 µM
MSD (Maximum Safe Dose) (MDA-MB-468 cells [2]): 0.79 µM
SI (Selectivity Index) (MDA-MB-468 cells [2]): 1
SI of Prodrug Combined with Maximum Safety Dose of Pro-oxidant (MDA-MB-468 cells [2]): 5
IC50 (MDA-MB-468 cells [2]; read-out: IC50): 6.27 ± 0.33 µM
